According to the NIST ThermoML archive (doi:10.1016/j.jct.2015.02.020):
± gives the expanded uncertainty stated by the source.

Assays:
[1] = xn = mol fraction of the nth substance listed; details: 101.3 kPa, Liquid; for viscosity: Falling or rolling sphere viscometry; for speed of sound: Sing-around technique in a fixed-path interferometer; for mass density: Vibrating tube method
[2] = refractive index (Na D-line) (dimensionless); xn = mol fraction of the nth substance listed; details: 101.3 kPa, Liquid, Standard Abbe refractometry

CC[n+]1cccc(C)c1.O=S(=O)([N-]S(=O)(=O)C(F)(F)F)C(F)(F)F + O
Details	mass density, [1] [kg/m3]	refractive index, [2]	speed of sound, [1] [m/s]	viscosity, [1] [mPa·s]
298.15 K, x2 = 0.131	1481.91 ± 0.77	1.44197 ± 0.00037	1262.7 ± 1.5	29.75 ± 0.83
298.15 K, x2 = 0.189	1479.39 ± 0.89	1.44144 ± 0.00039	1264.6 ± 1.5	27.2 ± 0.79
298.15 K, x2 = 0.266	1473.92 ± 0.98	1.44013 ± 0.0004	1268.3 ± 1.5	23.89 ± 0.73
303.15 K, x2 = 0.131	1477.02 ± 0.77	1.44057 ± 0.00037	1251.8 ± 1.5	24.96 ± 0.73
303.15 K, x2 = 0.189	1474.49 ± 0.9	1.44005 ± 0.00038	1253.4 ± 1.5	22.92 ± 0.67
303.15 K, x2 = 0.266	1468.97 ± 0.98	1.43917 ± 0.00038	1257.1 ± 1.5	20.03 ± 0.59
308.15 K, x2 = 0.131	1472.16 ± 0.77	1.4391 ± 0.00038	1240.8 ± 1.5	21.21 ± 0.61
308.15 K, x2 = 0.189	1469.6 ± 0.9	1.43852 ± 0.00038	1242.3 ± 1.5	19.52 ± 0.56
308.15 K, x2 = 0.266	1464.04 ± 0.99	1.43769 ± 0.00037	1246 ± 1.5	17.09 ± 0.51
313.15 K, x2 = 0.131	1467.31 ± 0.77	1.43766 ± 0.00037	1229.9 ± 1.5	18.24 ± 0.51
313.15 K, x2 = 0.189	1464.73 ± 0.9	1.43716 ± 0.00038	1231.4 ± 1.5	16.84 ± 0.49
313.15 K, x2 = 0.266	1459.12 ± 0.99	1.43624 ± 0.00037	1234.9 ± 1.5	14.62 ± 0.45
318.15 K, x2 = 0.131	1462.48 ± 0.77	1.43623 ± 0.00037	1219.1 ± 1.5	15.79 ± 0.44
318.15 K, x2 = 0.189	1459.88 ± 0.91	1.43573 ± 0.00036	1220.5 ± 1.5	14.61 ± 0.42
318.15 K, x2 = 0.266	1454.22 ± 1	1.43533 ± 0.00036	1224 ± 1.5	12.74 ± 0.39
323.15 K, x2 = 0.131	1457.66 ± 0.77	1.4348 ± 0.00038	1208.4 ± 1.5	13.84 ± 0.38
323.15 K, x2 = 0.189	1455.04 ± 0.91	1.43425 ± 0.00036	1209.5 ± 1.5	12.88 ± 0.37
323.15 K, x2 = 0.266	1449.34 ± 1	1.43385 ± 0.00035	1213.2 ± 1.5	11.23 ± 0.34
328.15 K, x2 = 0.131	1452.87 ± 0.77	1.43338 ± 0.00038	1197.8 ± 1.5	12.27 ± 0.33
328.15 K, x2 = 0.189	1450.22 ± 0.91	1.43281 ± 0.00036	1199.2 ± 1.5	11.44 ± 0.32
328.15 K, x2 = 0.266	1444.47 ± 1	1.43261 ± 0.00035	1202.4 ± 1.5	9.965 ± 0.31
333.15 K, x2 = 0.131	1448.09 ± 0.77	1.43195 ± 0.00037	1187.3 ± 1.5	10.95 ± 0.29
333.15 K, x2 = 0.189	1445.42 ± 0.92	1.43142 ± 0.00036	1188.6 ± 1.5	10.21 ± 0.29
333.15 K, x2 = 0.266	1439.61 ± 1	1.43119 ± 0.00035	1191.8 ± 1.5	8.892 ± 0.28
338.15 K, x2 = 0.131	1443.32 ± 0.77	1.43052 ± 0.00038	1176.9 ± 1.5	9.815 ± 0.26
338.15 K, x2 = 0.189	1440.63 ± 0.92	1.42999 ± 0.00036	1178.2 ± 1.5	9.153 ± 0.26
338.15 K, x2 = 0.266	1434.78 ± 1	1.42974 ± 0.00035	1181.2 ± 1.5	7.977 ± 0.25
343.15 K, x2 = 0.131	1438.57 ± 0.77	1.42911 ± 0.00038	1166.6 ± 1.5	8.833 ± 0.23
343.15 K, x2 = 0.189	1435.85 ± 0.92	1.42853 ± 0.00036	1167.8 ± 1.5	8.239 ± 0.23
343.15 K, x2 = 0.266	1429.95 ± 1	1.42835 ± 0.00035	1170.8 ± 1.5	7.182 ± 0.23

CC[n+]1ccccc1C.O=S(=O)([N-]S(=O)(=O)C(F)(F)F)C(F)(F)F + O
Details	mass density, [1] [kg/m3]	refractive index, [2]	speed of sound, [1] [m/s]	viscosity, [1] [mPa·s]
298.15 K, x2 = 0.124	1498.88 ± 0.85	1.44635 ± 0.00039	1301.6 ± 1.5	54.52 ± 1.8
298.15 K, x2 = 0.172	1496.43 ± 0.92	1.44579 ± 0.00038	1302.6 ± 1.5	48.93 ± 1.6
298.15 K, x2 = 0.256	1490.94 ± 0.93	1.44479 ± 0.00038	1304.6 ± 1.4	40.5 ± 1.5
303.15 K, x2 = 0.124	1493.99 ± 0.85	1.44489 ± 0.00038	1290.2 ± 1.5	44.3 ± 1.6
303.15 K, x2 = 0.172	1491.53 ± 0.92	1.44442 ± 0.00039	1291.2 ± 1.5	39.95 ± 1.4
303.15 K, x2 = 0.256	1485.99 ± 0.93	1.44323 ± 0.00039	1293.2 ± 1.4	32.89 ± 1.1
308.15 K, x2 = 0.124	1489.12 ± 0.85	1.44343 ± 0.00038	1279 ± 1.5	36.58 ± 1.3
308.15 K, x2 = 0.172	1486.64 ± 0.92	1.44289 ± 0.00039	1279.9 ± 1.5	33.11 ± 1.1
308.15 K, x2 = 0.256	1481.06 ± 0.94	1.44178 ± 0.00038	1282.2 ± 1.4	27.38 ± 0.96
313.15 K, x2 = 0.124	1484.26 ± 0.85	1.44195 ± 0.00039	1267.9 ± 1.5	30.63 ± 1
313.15 K, x2 = 0.172	1481.77 ± 0.93	1.44136 ± 0.00038	1268.8 ± 1.5	27.84 ± 0.91
313.15 K, x2 = 0.256	1476.14 ± 0.94	1.44044 ± 0.00037	1271 ± 1.4	23.19 ± 0.8
318.15 K, x2 = 0.124	1479.43 ± 0.85	1.4405 ± 0.00039	1256.9 ± 1.5	25.97 ± 0.86
318.15 K, x2 = 0.172	1476.91 ± 0.93	1.43988 ± 0.00038	1257.8 ± 1.5	23.68 ± 0.76
318.15 K, x2 = 0.256	1471.25 ± 0.94	1.43914 ± 0.00036	1259.9 ± 1.4	19.85 ± 0.67
323.15 K, x2 = 0.124	1474.61 ± 0.85	1.43906 ± 0.00039	1246 ± 1.5	22.27 ± 0.72
323.15 K, x2 = 0.172	1472.08 ± 0.93	1.43853 ± 0.00037	1246.8 ± 1.5	20.38 ± 0.64
323.15 K, x2 = 0.256	1466.37 ± 0.95	1.43787 ± 0.00036	1248.8 ± 1.4	17.19 ± 0.57
328.15 K, x2 = 0.124	1469.81 ± 0.85	1.43777 ± 0.00038	1235.3 ± 1.5	19.27 ± 0.6
328.15 K, x2 = 0.172	1467.26 ± 0.93	1.4372 ± 0.00037	1236 ± 1.5	17.72 ± 0.55
328.15 K, x2 = 0.256	1461.5 ± 0.95	1.43662 ± 0.00036	1237.9 ± 1.4	14.95 ± 0.49
333.15 K, x2 = 0.124	1465.03 ± 0.85	1.43633 ± 0.00038	1224.6 ± 1.5	16.83 ± 0.53
333.15 K, x2 = 0.172	1462.46 ± 0.94	1.43586 ± 0.00037	1225.3 ± 1.5	15.44 ± 0.47
333.15 K, x2 = 0.256	1456.65 ± 0.96	1.43532 ± 0.00036	1227.1 ± 1.4	13.17 ± 0.42
338.15 K, x2 = 0.124	1460.28 ± 0.85	1.43494 ± 0.00038	1214 ± 1.5	14.77 ± 0.45
338.15 K, x2 = 0.172	1457.68 ± 0.94	1.43447 ± 0.00036	1214.6 ± 1.5	13.67 ± 0.41
338.15 K, x2 = 0.256	1451.82 ± 0.96	1.43398 ± 0.00035	1216.3 ± 1.4	11.71 ± 0.37
343.15 K, x2 = 0.124	1455.53 ± 0.85	1.43355 ± 0.00037	1203.5 ± 1.5	13.13 ± 0.37
343.15 K, x2 = 0.172	1452.91 ± 0.94	1.43315 ± 0.00036	1204.1 ± 1.5	12.18 ± 0.36
343.15 K, x2 = 0.256	1447.01 ± 0.96	1.43279 ± 0.00035	1205.6 ± 1.4	10.47 ± 0.33
